Experimental data from patent publication US10806798B2, “Compound with effects of thrombolysis, free radical scavenging and thrombus-targeting” (Shanghai Lumosa Therapeutics Co., Ltd., priority 2012, dated 2020).

Tests used:
Assay type in all cases: in vivo, SD rats
rats with stroke [1] = assay: Successive treatments with 1 μmol/kg Ie starting 6 h after the onset of stroke (Zealonga scores)
Experimental: The efficacy was represented by neural function scores, and a lower score indicates higher efficacy. A 10% chloral hydrate solution was injected intraperitoneally into male SD rats at a dosage of 400 mg/kg body weight for anesthesia. A longitudinal open incision was made at the center of the neck, and the right common carotid artery trunk was dissected (about 3 cm in length). Carotid external artery branches were each dissected and ligated at the hyoid level, and the carotid internal artery was dissected at the swollen part of the neck. The open incision in the carotid internal artery and the proximal end of the common carotid artery were occluded respectively with noninvasive arterial clips, and the distal end of the carotid external artery was ligated. A catheter containing 0.5 mL thrombus suspension in normal saline was inserted in the carotid external artery trunk. At the same time when the clip on the carotid internal artery was released, the 0.5 mL thrombus suspension in normal saline in the catheter slowly flew from the carotid external artery to its proximal end, and then was injected into the arteries in brain through the carotid internal artery. Subsequently, the proximal end of the carotid artery was ligated, the arterial clips on the carotid internal artery and the common carotid artery were released, and blood flow was restored. After the wound was stitched up, 20,000 IU penicillin was intramuscularly injected for prevention from infection. After 6 h, compound Ie in normal saline (at a dosage of 1 μmol/kg, n=11), urokinase in normal saline (at a dosage of 20000 IU/kg, n=6) or tPA in normal saline (at a dosage of 3 mg/kg, n=6) was infused through the tail vein. Infusion of compound Ie in normal saline through rat tail vein was carried out once per day for 6 consecutive days, observed for 7 days. The rats were compared to themselves each day, and evaluated for the degree of damage in neural function by the Zealonga method. Alternatively, infusion of urokinase in normal saline through rat tail vein was carried out once per day for two consecutive days, the rats were compared to themselves each day, and evaluated for the degree of damage in neural function by the Zealonga method. Alternatively, infusion of tPA in normal saline through rat tail vein was carried out once per day for two consecutive days, the rats were compared to themselves each day, and evaluated for the degree of damage in neural function by the Zealonga method. A score of 0 indicated no sign of loss in neural function, 1 indicated the front limbs on the undamaged side could not stretch out, 2 indicated walking toward the undamaged side, 3 indicated tail-chasing walking in circles toward the undamaged side, 4 indicated involuntary walking with disturbance of consciousness, and 5 indicated death.

rats with stroke [2] = assay: Immediate treatment after stroke onset with different dosages of Ie (Zealonga scores)
Experimental: A 10% chloral hydrate solution (400 mg/kg) was injected intraperitoneally into male SD rats (250 to 300 g) for anesthesia. An incision of about 2 cm in length was longitudinally made slightly on the right to the center of the neck, and the right carotid common artery, carotid external artery and carotid internal artery were dissected along the margin of the inner side of sternocleidomastoid muscles. The open incision in the carotid internal artery and the proximal end of the common carotid artery were occluded respectively with noninvasive arterial clips. A small incision was made on the carotid external artery, and the distal end of the carotid external artery was ligated. The arterial clip at the proximal end of the carotid external artery was released, and 10 μl blood was drawn before the proximal end of the common carotid artery was again occluded with a noninvasive arterial clip. The 10 μl blood drawn was placed in a 1 mL EP vial and kept at RT for 30 min until coagulation of blood, and then transferred into a −20° C. refrigerator for 1 h to allow solid coagulation. After 1 h, the blood clots were taken out, added into 1 mL saline, and then broken into relatively uniform microthrombus by using a steel spatula. The microthrombus suspension was then transferred into a 1 mL injector until use. At the same time when the clip on the carotid internal artery of the rat was released, the 1 mL thrombus suspension in the injector was slowly injected from the carotid external artery of the rat to its proximal end, and then was injected into the brain of the rat through the carotid internal artery. Subsequently, the proximal end of the carotid external artery was ligated, the arterial clips on the carotid internal artery and the carotid common artery were released, and blood flow was restored. Injection of urokinase in normal saline (positive control group, at a dosage of 20000 IU/kg), tPA in normal saline (positive control group, at a dosage of 3 mg/kg), normal saline (blank control group, at a dosage of 3 mL/kg), or compound Ie in normal saline (at a dosage of 1 μmol/kg, 0.1 μmol/kg or 0.01 μmol/kg) was carried out. 24 h after the rats were awake, the degree of damage in neural function was evaluated by the Zealonga method. A score of 0 indicated no sign of loss in neural function, 1 indicated the front limbs on the undamaged side could not stretch out, 2 indicated walking toward the undamaged side, 3 indicated tail-chasing walking in circles toward the undamaged side, 4 indicated involuntary walking with disturbance of consciousness, and 5 indicated death. As shown in the results, in rats receiving immediate treatment after the onset of stroke with […] compound Ie, the percentage of rats with a neural function score of 0 was 60%, 30%, and 0%, respectively; and the percentage of rats with a neural function score of 1 was 20%, 30%, and 10%, respectively.

rats with stroke [3] = assay: Successive treatments starting 4 h after the onset of stroke (Zealonga scores)
Experimental: The efficacy was represented by neural function scores, and a lower score indicates higher efficacy. A 10% chloral hydrate solution was injected intraperitoneally into male SD rats at a dosage of 400 mg/kg body weight for anesthesia. A longitudinal incision was made at the center of the neck, and the right carotid common artery trunk was dissected (about 3 cm in length). Carotid external artery branches were each dissected and ligated at the hyoid level, and the carotid internal artery was dissected at the swollen part of the neck. The open incision in the carotid internal artery and the proximal end of the common carotid artery were occluded respectively with noninvasive arterial clips, and the distal end of the carotid external artery was ligated. A catheter containing 0.5 mL thrombus suspension in normal saline was inserted in the carotid external artery trunk. At the same time when the clip on the carotid internal artery was released, the 0.5 mL thrombus suspension in normal saline in the catheter slowly flew from the carotid external artery to its proximal end, and then was injected into the arteries in brain through the carotid internal artery. Subsequently, the proximal end of the carotid artery was ligated, the arterial clips on the carotid internal artery and the common carotid artery were released, and blood flow was restored. After the wound was stitched up, 20,000 IU penicillin was intramuscularly injected for prevention from infection. After 4 h, compound Ie in normal saline (at a dosage of 1 μmol/kg, n=1), urokinase in normal saline (at a dosage of 20000 IU/kg, n=6) or tPA in normal saline (at a dosage of 3 mg/kg, n=6) was infused through the tail vein. Infusion of compound Ie in normal saline through rat tail vein was carried out once per day for 6 consecutive days, observed for 7 days. The rats were compared to themselves each day, and evaluated for degree of damage in neural function by the Zealonga method. Alternatively, infusion of urokinase in normal saline through rat tail vein was carried out once per day for two consecutive days, the rats were compared to themselves each day, and evaluated for the degree of damage in neural function by the Zealonga method. Alternatively, infusion of tPA in normal saline through rat tail vein was carried out once per day for two consecutive days, the rats were compared to themselves each day, and evaluated for the degree of damage in neural function by the Zealonga method. A score of 0 indicated no sign of loss in neural function, 1 indicated the front limbs on the undamaged side could not stretch out, 2 indicated walking toward the undamaged side, 3 indicated tail-chasing walking in circles toward the undamaged side, 4 indicated involuntary walking with disturbance of consciousness, and 5 indicated death.

[4] = Day 1, tPA 3 mg/kg once per day from 6 h after stroke onset, n=6
[5] = Day 2, tPA 3 mg/kg once per day from 6 h after stroke onset, n=6
[6] = Day 1, tPA 3 mg/kg once per day from 4 h after stroke onset, n=6
[7] = Day 2, tPA 3 mg/kg once per day from 4 h after stroke onset, n=6

tPA: tissue-type plasminogen activator, positive control
number of rats scored Score 0 (rats with stroke [1]; [4]): 1 rat^ rats | number of rats scored Score 1 (rats with stroke [1]; [4]): 1 rat rats | number of rats scored Score 2 (rats with stroke [1]; [4]): 1 rat rats | number of rats scored Score 3 (rats with stroke [1]; [4]): 1 rat rats | number of rats scored Score 4 (rats with stroke [1]; [4]): 2 rats | number of rats scored Score 0 (rats with stroke [1]; [5]): 2 rats | number of rats scored Score 2 (rats with stroke [1]; [5]): 1 rat rats | number of rats scored Score 3 (rats with stroke [1]; [5]): 1 rat rats | rats recovered to have only the sign of slight loss in neural function (rats with stroke [1]; after two doses, tPA 3 mg/kg each day from 6 h after stroke onset, 6 rats): 2 rats | rats died (rats with stroke [1]; out of 6 rats, within 24 h, tPA 3 mg/kg each day from 6 h after stroke onset): 2 | autopsy on the dead rats (rats with stroke [1]; tPA 3 mg/kg each day from 6 h after stroke onset): hemorrhage in internal organs, particularly severe hemorrhage in lungs | percentage of rats with a neural function score of 0 (rats with stroke [2]; 3 mg/kg tPA): 40% | percentage of rats with a neural function score of 1 (rats with stroke [2]; 3 mg/kg tPA): 10% | number of rats scored Score 0 (rats with stroke [2]; tPA 3 mg/kg, n = 10): 4 | number of rats scored Score 1 (rats with stroke [2]; tPA 3 mg/kg, n = 10): 1 | number of rats scored Score 2 (rats with stroke [2]; tPA 3 mg/kg, n = 10): 1 | number of rats scored Score 3 (rats with stroke [2]; tPA 3 mg/kg, n = 10): 3 | number of rats scored Score 4 (rats with stroke [2]; tPA 3 mg/kg, n = 10): 1 | number of rats scored Score 5 (rats with stroke [2]; tPA 3 mg/kg, n = 10): 0 | number of rats scored Score 1 (rats with stroke [3]; [6]): 2 rats | number of rats scored Score 2 (rats with stroke [3]; [6]): 3 rats | number of rats scored Score 3 (rats with stroke [3]; [6]): 1 rat rats | number of rats scored Score 0 (rats with stroke [3]; [7]): 2 rats | number of rats scored Score 1 (rats with stroke [3]; [7]): 2 rats | number of rats scored Score 2 (rats with stroke [3]; [7]): 1 rat^ rats | rats recovered to have only the sign of slight loss in neural function (rats with stroke [3]; after two doses, tPA 3 mg/kg each day from 4 h after stroke onset, 6 rats): 2 rats | rats died (rats with stroke [3]; out of 6 rats, within 24 h, tPA 3 mg/kg each day from 4 h after stroke onset): 1 | autopsy on the dead rat (rats with stroke [3]; tPA 3 mg/kg each day from 4 h after stroke onset): hemorrhage in internal organs, particularly severe hemorrhage in lungs
